Experimental data as given in patent publication EP0419676B1, “THIONAPHTHALENE DERIVATIVES, METHOD OF PRODUCING THE SAME, AND ANTIALLERGIC AGENT CONTAINING THE SAME” (TEIJIN LIMITED, priority 1989, dated 1990).
Like-named read-outs stand apart in the source and are kept apart here.

Assays:
[1] = test system: anti-TNP IgE antibody production; assay: IgE antibody production suppressive effect: anti-TNP IgE production by cultured spleen cells of TNP-KLH-immunized mouse; format: cell-based, BALB/C mouse; conditions: for Anti-TMP antibody production IgE, value in brackets (IgE production dependency on the antigen) / Anti-TMP antibody production IgE: TNP-KLH 10 ng/ml; for Anti-TMP antibody production IgE, value in brackets (IgE production dependency on the antigen): no addition 8.5; for Anti-TMP antibody production IgE: no addition 13.0
Procedure: (§1) An 8 weeks old BALB/C mouse (♀) was immunized by an intraperitoneal injection of 10 µg of TNP-KLH (trinitrophenyl-key hole limpet hemocyanine) and 2 mg of aluminum hydroxide gel, and after 3 weeks, 1 µg of TNP-KLH and 2 mg of aluminum hydroxide gel were boosted, and 4 weeks later, the spleen was enucleated.
(§2) The spleen cells (6 x 10⁶) were cultured together with 10 ng/ml of TNP-KLH, in the presence or non-presence of the compound of the present invention (10⁻⁵ to 10⁻⁷ M), in 1 ml of RPMI-1640 medium (containing 10% fetal bovine serum) for 2 days, followed by washing to remove the antigen and the drug, and the washed cells were resuspended in a fresh medium containing no antigen and further cultured for 5 days. All cultivations were performed under 5% CO₂ at 37°C. After completion of the culturing, the supernatant was recovered, and the concentration of anti-TNP IgE or anti-TNP IgG antibody was determined by an antigen and isotype specific immunoassay. […]
The values in the brackets ( ) indicate the values of the spontaneous IgE production amount observed when TNP-KLH was not added, and represent the IgE production dependency on the antigen.
(§3) The same experimental methods were used for the compounds shown below, and IgE antibody production suppressive effects were evaluated. […] (Exemplary compound VI - (1)): methyl (6,7-dimethoxy-2-naphthylthio)acetate (Exemplary compound V - (4)): N-(2-methoxycarbonylphenyl)-(6,7-dihydroxy-2-naphthylthio)acetamide (Exemplary compound V - (2)): N-tetrazolyl(6,7-dihydroxy-2-naphthylthio)acetamide Table 2

Lipoxygenase = molecular target: T1, Lipoxygenase (Homo sapiens, UniProt P09917); assay: Lipoxygenase inhibitory activity evaluation: LTB4 and 5-HETE production in A23187-stimulated whole blood; format: cell-based, healthy man; conditions: 10⁻⁵ M, A23187 25 µM
T1 construct: heparin-treated vein blood of a healthy person; from tissue; host or cells: human heparinised venous whole blood (leukocytes)
T1 sequence (P09917 1-674): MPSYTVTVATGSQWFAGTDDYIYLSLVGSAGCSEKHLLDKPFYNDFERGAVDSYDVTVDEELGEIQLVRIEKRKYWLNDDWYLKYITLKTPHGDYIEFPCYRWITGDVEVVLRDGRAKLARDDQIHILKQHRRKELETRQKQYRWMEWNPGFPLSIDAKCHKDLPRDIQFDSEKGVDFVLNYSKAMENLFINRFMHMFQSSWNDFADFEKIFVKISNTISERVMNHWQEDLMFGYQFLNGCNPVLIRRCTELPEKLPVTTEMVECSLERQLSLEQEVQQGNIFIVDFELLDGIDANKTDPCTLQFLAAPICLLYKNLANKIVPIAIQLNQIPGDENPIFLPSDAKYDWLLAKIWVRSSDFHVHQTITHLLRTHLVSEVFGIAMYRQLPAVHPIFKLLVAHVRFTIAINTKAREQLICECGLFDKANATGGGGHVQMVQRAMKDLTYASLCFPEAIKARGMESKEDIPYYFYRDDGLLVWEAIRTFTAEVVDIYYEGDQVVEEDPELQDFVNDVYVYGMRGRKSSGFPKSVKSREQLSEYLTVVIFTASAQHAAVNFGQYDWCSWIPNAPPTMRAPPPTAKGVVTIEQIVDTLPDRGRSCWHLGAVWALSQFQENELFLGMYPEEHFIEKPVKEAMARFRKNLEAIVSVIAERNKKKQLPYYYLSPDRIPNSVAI
Procedure: To 1 ml of heparin-treated vein blood of a healthy person without an administration of drugs was added 1 µl of a DMSO solution of the drug test sample listed in Table 5 (final 10⁻⁵ M), and after treatment at 37°C for 5 minutes, 5 µl of a DMSO solution of A23187 was added (final 25 µM) and the treatment carried out at 37°C for 15 minutes, followed by ice-cooling. After the addition of 10 µl of a DMSO solution of 100 ng of 15-HETE as the internal standard substance for quantitation, 0.8 ml of acetonitrile was added, and the precipitates formed were removed by centrifugation. Then, LTB₄ and 5-HETE in the supernatant were subjected to HPLC separation and quantitation (ref. F.J. Sweeney, et al., Prostaglandins Leukotrienes & Med., 28, 73 (1987)).

anti-TNP IgG = assay: Anti-TNP IgG production by cultured spleen cells of TNP-KLH-immunized mouse; format: cell-based, BALB/C mouse; conditions: for Anti-TMP antibody production IgG: TNP-KLH 10 ng/ml, no addition 8.1
Procedure: as §1, §2, §3

[2] = test system: peritoneal mast cells of rat; assay: Histamine release from IgE-sensitized peritoneal mast cells, DNP-As antigen (allergic release); format: cell-based, Sprague-Dawley strain male rat
Procedure: (§4) To a Sprague-Dawley strain male rat (10 weeks or older) was intraperitoneally administered, under ether anesthesia, a diluted rat anti-DNP-As IgE serum at 2 ml/kg. After 16 hours, cells were recovered by washing intraperitoneally with a Tyrode solution containing 0.5% heparin (Ca⁺⁺, Mg⁺⁺, free). Mast cells (5 x 10⁴) separated by overlying in the 30% Ficoll/Tyrode solution and centrifugation were reliberated into the Tyrode solution (Ca⁺⁺, Mg⁺⁺) and incubated with the addition of the drug solution shown in Table 3-1, for 10 minutes, and then DNP-As and phosphatidylserine were added to final concentrations of 20 µg/ml and 25 µg/ml, respectively, followed by incubation for 10 minutes. The reaction was stopped by ice-cooling, and the histamine release in the supernatant was determined by fluorophotometry.

[3] = test system: peritoneal mast cells of rat; assay: Histamine release from peritoneal mast cells induced by Compound 48/80 (non-allergic release); format: cell-based, Sprague-Dawley strain male rat; conditions: for inhibition at 10 µM: 10⁻⁵ M
Procedure: as §4, with “fluorophotometry. Regarding the non-allergy release, 5 x 10⁴ of mast cells were investigated by incubation with 0.5 µg/ml of Compound 48/80 for 10 minutes, after the addition of the drug solution shown in Table 3-2.” for “fluorophotometry.”

[4] = test system: Rat homologous PCA reaction; assay: Rat homologous PCA reaction; format: in vivo, Sprague-Dawley strain male rat; conditions: p.o., 1 hour before antigen
Procedure: The back of a Sprague-Dawley strain male rat (6 - 8 w) was depilated, and at one site on both sides thereof, 0.1 ml of a rat anti-ovalbumin IgE serum diluted with physiological saline was intradermally injected under ether anesthesia. After 48 hours, 25 mg/kg of ovalbumin, 25 mg/kg of Evans Blue were intravenously administered to induce the PCA reaction, and after 30 minutes, the skin was peeled off, dipped in a mixture of 0.3% Na₂SO₄·10H₂O/Acetate (3:7), and the dye amount infiltrated was quantitated by absorbance at 620 nm. The drug listed in Table 4 was suspended in 5% gum arabic solution and orally administered 1 hour before the antigen administration.

In the case of `COC(=O)CSc1ccc2cc(O)c(O)cc2c1` [Exemplary compound IV-(1), Methyl (6,7-dihydroxy-2-naphthylthio)acetate], the “suppression of anti-TNP IgE antibody production (in words)” value ([1]; 10⁻⁵ to 10⁻⁷ M) is reported as “suppressed the anti-TNP IgE antibody production dose-dependency”, the “Anti-TMP antibody production IgE, value in brackets (IgE production dependency on the antigen)” value ([1]; 10⁻⁶ M) is reported as 1.0 ng/mL and the “Anti-TMP antibody production IgE” value ([1]; 10⁻⁶ M) is reported as 5.5 ng/mL. For the same compound, the “Anti-TMP antibody production IgE, value in brackets (IgE production dependency on the antigen)” value ([1]; 10⁻⁷ M) was 2.5 ng/mL, the “Anti-TMP antibody production IgE” value ([1]; 10⁻⁷ M) was 7.5 ng/mL and the “suppressive ratio (antigen-dependent IgE production)” value ([1]; antigen-dependent IgE production compared with spontaneous IgE production) was 70 - 90%. For the same compound, the “5-HETE (Inhibitory ratio %)” value (Lipoxygenase) was 60%, the “LTB₄ (Inhibitory ratio %)” value (Lipoxygenase) was 74% and the “Amount of LTB₄ produced” value (Lipoxygenase; no addition 125) was 32 ng/ml/plasma. The “Amount of 5-HETE produced” value (Lipoxygenase; no addition 130) was 52 ng/ml/plasma, the “suppressive effect against the production of anti-TNP IgG (in words)” value (anti-TNP IgG) was “substantially no suppressive effect” and the “Anti-TMP antibody production IgG” value (anti-TNP IgG; 10⁻⁶ M) was 7.3 µg/mL. The “Anti-TMP antibody production IgG” value (anti-TNP IgG; 10⁻⁷ M) was 7.5 µg/mL, the “suppressive action against allergy histamine release (in words)” value [2] was “suppressive actions” and the “suppressive action against non-allergy histamine release (in words)” value [3] was “weak suppressive actions”. For the same compound, the inhibition at 100 µM ([3]; Rattus norvegicus, Mast cell, 10 min, Experiment 1, 10⁻⁴ M, Compound 48/80 0.5 µg/ml, read-out: Inhibitory ratio (%) histamine release) was 23%, the inhibition at 10 µM ([3]; Rattus norvegicus, Mast cell, 10 min, Experiment 1, Compound 48/80 0.5 µg/ml, read-out: Inhibitory ratio (%) histamine release) was 10.5% and the inhibition at 1 µM ([3]; Rattus norvegicus, Mast cell, 10 min, Experiment 1, 10⁻⁶ M, Compound 48/80 0.5 µg/ml, read-out: Inhibitory ratio (%) histamine release) was -1.9%. For the same compound, the inhibition at 10 µM ([3]; Rattus norvegicus, Mast cell, 10 min, Experiment 2, Compound 48/80 0.5 µg/ml, read-out: Inhibitory ratio (%) histamine release) was 2%, the “Suppressive ratio (%) Experiment 1” value ([4]; 25 mg/kg) was 14.8% and the “Suppressive ratio (%) Experiment 2” value ([4]; 25 mg/kg) was 24.2%. The “Suppressive ratio (%) Experiment 2” value ([4]; 50 mg/kg) was 31.3%.
